Experimental data reported in US20080026409A1, “SALT-SENSITIVE HYPERTENSION” (THE BOARD OF TRUSTEES OF THE UNIVERSITY OF ILLINOIS, priority 2006, published 2008).
Entries after “also recorded” stand apart in the source; their conditions may differ.

Experiments:
[1] = test system: basolateral Na/K ATPase in LLCPK1 cells; assay: Basolateral Na/K ATPase expression by surface biotinylation and Western blot; assay type: cell-based; settings: for expression of basolateral Na/K ATPase: LLCPK1 cells, Ang IV 10^−9 M×20 hours, siRNA transfection
Description: Representative autoradiograph of Na-K ATPase as detected by Western blot represented above bar-graph. Upper panel: representative autoradiograph of Na-K ATPase as detected by Western blot. Overexpression of APN( APN Over Exp) n=3 (except Ang IV, n=6) * P<0.05 compared to control paired t-test) Complementary measurements of Na/K ATPase expression by confocal microscopy-FIG. 5).
(§1) Na/K ATPase expression and activity are measured by basolateral surface biotinylation and oubain-inhibitable ATPase activity, respectively, in cells cultured in Transwell plates.
In complementary experiments, basolateral Na/K ATPase expression in cultured cells is measured both by biotinylation and confocal microscopy. Biotinylation technique to assess the surface Na/K ATPase protein has already been established in our laboratory. Biotinylation is performed as using NHS-S-S-biotin (Pierce). Labeling for 20 min at the basolateral domain in cells grown in transwells at 4° C. to stop endocytosis and internalization of antigen. Biotinylated antigens are immunoprecipitated with streptavidin agarose and released by incubation in 10 mM dithiothreitol, reconstituted in Laemmli buffer, subjected to SDS-PAGE and then probed with Anti alphal Na/K ATPase mAb (Upstate/ Millipore, Billerica, Mass.). For analysis, surface Na/K ATPase is compared to total protein as determined by immunoblotting in solubilized cell extract and with the amount of Na/K ATPase not removed by avidin precipitation method (intracellular pool).

[2] = test system: Na/K ATPase in LLCPK1 cells; assay: Na/K ATPase distribution by confocal immunofluorescence; assay type: cell-based; settings: for APN induced endocytosis of Na/K ATPase: LLCPK1 cells with APN overexpression plus siRNA; for Na/K ATPase distribution (endocytosis, membrane abundance): LLCPK1 cells, Ang IV 10 nM×12 hours, oubain 50 nM×12 hours (control)
Description: FIGS. 6A-6G are scans of photographs showing Na/K ATPase distribution in LLCPK1 cells by immuno fluorescence (complementary to FIG. 5): Confocal images from z-stacked permeabilized LLCPK1 cells probed for Na/K ATPase using monoclonal Ab against the alpha subunit of Na/K ATPase (1:100). FIG. 6A: Control. […] All images were generated with a Zeiss LSM 410 laser scanning confocal microscope at 100×. All settings were the same for all images obtained. Images are representative of experiments repeated twice. Arrows: endocytosis of Na/K ATPase.
Confocal microscopy: Confocal fluorescence microscopy is performed using a Zeiss LSM 510 confocal microscope and Anti alphal Na/K ATPase mAb (Upstate/ Millipore, Billerica, Mass.) to further confirm the internalization of surface Na/K ATPase.

LLC-PK cells = assay: Quantitative immunohistochemistry for APN and Ang IV after siRNA; assay type: cell-based; settings: siRNA 2 μg per well, 48 hours, Q-IHC, P<0.05 vs control
Description: The top panel is a scan of photographs showing quantitative immunohistochemistry (QIH-C) for APN and Ang IV. Cells were grown in 4 well chamber plates. For siRNA, each well was incubated (37° C. for 5 hours) with 1 ml media containing 4 μl of Enhancer R, 4 μl of RNAi (2 μg), 8 μl of Transmessenger Reagent and […] of optimem followed by 0.5 ml of optimem+20% FBS for 48 hours. The cells were fixed with 3.7% formaldehyde and stained using DakoCytomation staining kit. The amount of DAB staining was measured using Q-IHC. N=10 fields analyzed/transfection×2 transfections P<0.05 vs control. Upper panel: representative fields. Positive staining-arrows.
APN abundance regulates Ang IV: To initially address the hypothesis that the mechanism for APN-mediated regulation of Na/K ATPase is via Ang IV signaling, the effect of suppression of endogenous APN expression with siRNA on Ang IV abundance was measured in LLC-PK cells (FIG. 3A-3B). siRNA to APN decreased both APN and Ang IV expression, indicating the Ang IV level was regulated by APN.
For quantitative immunohistochemistry, a standard three-stage indirect immunoperoxidase technique is used on formalin fixed kidney sections. Images are acquired using a 4.9 million pixel digital scanning 24-bit RGB camera, saved in TIFF format, and used for subsequent analysis. […]

[3] = test system: Dahl SS/Jr rats on 8% NaCl; assay: Radiotelemetric blood pressure monitoring during Ang IV infusion; assay type: in vivo, rat; settings: 10 day Ang IV infusion 7 pmol/minute, n=4, P<0.05
Description: Radiotelemetric blood pressure monitoring with 10 day Ang IV (7 pmol/minute) infusion (===). Systolic BP (peak) 157-188 mmHg. BP for each rat normalized to day 9, each BP averaged during 12 hour dark cycle (rats maintained 12 hours light/dark cycle). Day 0—surgical implantation of pressure transducer and infusion pump. n =4,- - - less than days 6-9 (initial infusion of Ang IV) and 16-24 (P<0.05).
Continuous arterial blood pressure monitoring is by radiotelemetry in freely moving instrumented rats. An implantable osmotic pump is used for infusion experiments.
First, for tail-cuff measurements, the rats must be restrained which falsely elevates the blood pressure due to adrenergic storm. With radiotelemetry, the rats are unrestrained and blood pressures are measured continuously in freely moving rats in large cages. […] Third, with tail cuff, blood pressures are measured once or at most twice a day, whereas, with radiotelemetry, blood pressures are measured continuously, allowing assessment of diurnal patterns and the time-integral of overall blood pressure burden. […]
Survival Surgery and Radiotelemetry Measurement of Central Aortic Pressure. […] Once the transmitter is activated by a special magnet, measurements of pulsatile central aortic blood pressure is recorded continuously by placing an individual receiver under each rat's cage. […]

[4] = test system: Na/K ATPase in LLCPK1 cells; assay: Na/K ATPase activity (oubain-inhibitable ATPase) in cultured cells; assay type: cell-based; settings: FIG. 7, n=1 (triplicate)
Description: FIG. 7 is a graph showing Na/K ATPase activity parallels changes in basolateral Na/K ATPase expression in LLCPK1 cells treated with siRNA to APN and AT4; Ang IV and oubain (control). n=1 (triplicate). siRNA to APN (siRNA-APN); siRNA to AT4 (siRNA-AT4); APN over-expression (APN o/e).
as §1
Measurement of Na/KATPase expression and activity: Na/K ATPase activity in membranes isolated from proximal tubule fractions and membranes from cultured/transfected cell lines is measured as the rate of inorganic phosphate, using coloring reagent (10% ammonium molybdate in 10 N sulfuric acid +ferrous sulfate) released in the presence or absence of oubain.

rat = settings: infusion into the renal artery, cited from earlier work
[5] = test system: primary cultures of rat renal epithelial cells; settings: cited from earlier work
rat proximal tubules = settings: fresh suspensions of control or nystatin-stimulated rat proximal tubules; cited from earlier work
HK-2 cells = settings: cited from earlier work
Dahl SR rats = assay: Infusion of Anpep inhibitor, salt-sensitivity by radiotelemetric blood pressure; assay type: in vivo, rat; settings: preliminary experiments
Description: For these experiments, continuous radiotelemetric blood pressure monitoring is performed in rats instrumented with transducers and osmotic mini-pumps.

5′-AACCTGAGTCAGGACGTAAT-3′; SEQ ID NO: 4 [siRNA to AT4 receptor]
regulation (reduction) of Na/K ATPase expression by Ang IV ([1]; LLCPK1 cells treated with siRNA and Ang IV): partially abolishes; also recorded: abrogated | expression of basolateral Na/K ATPase [1]: increase | APN induced endocytosis of Na/K ATPase [2]: partially blocks | APN induced endocytosis of Na/K ATPase ([2]; listed as siRNA to the AT4 receptor): abrogrates

5′-UCGGGCACAGAUCAUUAUUd(TT)-3′; SEQ ID NO: 3 [siRNA to APN]
expression of basolateral Na/K ATPase [1]: increased | APN expression (LLC-PK cells): reduces; also recorded: decreased | Ang IV expression (LLC-PK cells): reduces; also recorded: decreased

CC[C@H](C)[C@H](NC(=O)[C@H](Cc1ccc(O)cc1)NC(=O)[C@@H](N)C(C)C)C(=O)N[C@@H](Cc1cnc[nH]1)C(=O)N1CCC[C@H]1C(=O)N[C@@H](Cc1ccccc1)C(=O)O [Ang IV, V-Y-I-H-P-F (SEQ ID NO: 2)]
blood pressure (BP) [3]: reduces blood pressure; also recorded: lowers arterial blood pressure | expression of basolateral Na/K ATPase [1]: tend to reduce; also recorded: reduced | Na/K ATPase distribution (endocytosis, membrane abundance) [2]: endocytosis and reduced membrane abundance of Na/K ATPase | activity of basolateral Na/K ATPase [4]: reduce | cortical blood flow (rat; rat): increases cortical blood flow | Na excretion (rat): increases urinary Na excretion; also recorded: promotes Na excretion | blood pressure (rat): lowers blood pressure | transcellular Na transport [5]: dose-dependent decrease | transcellular Na+ transport (proximal tubule O2 consumption rates) (rat proximal tubules): decreases | Na uptake (reflecting decreased flux) (HK-2 cells): increases Na uptake

CC(C)C[C@H](NC(=O)C(O)[C@H](N)Cc1ccccc1)C(=O)O (stereo partly drawn) [bestatin, (2S,3R)-3-amino-2-hydroxy-4-phenylbutanoyl-L-leucine]
salt-sensitivity (Dahl SR rats): induced sensitivity

C[C@@H]1O[C@@H](O[C@H]2C[C@@H](O)[C@]3(CO)[C@H]4[C@H](O)C[C@]5(C)[C@@H](C6=CC(=O)OC6)CC[C@]5(O)[C@@H]4CC[C@]3(O)C2)[C@H](O)[C@H](O)[C@H]1O [oubain]
Na/K ATPase distribution (endocytosis, membrane abundance) [2]: endocytosis
